Test results published in US11312939B2, “Constructs for chimeric antigen receptors” (Carisma Therapeutics Inc., priority 2020, dated 2022).

Key:
[1] = tested on: Human macrophages electroporated with HER2 CAR mRNA; test: Cytokine treatment of HER2 CAR mRNA macrophages: viability, CAR expression, M1/M2 markers by flow cytometry; type: cell-based; conditions: days 2 and 7
Experimental: Human macrophages were electroporated with HER2 CAR mRNA comprising m6AGCap1 and PsU modifications. Cells were cultured with cytokines that induce an M1 phenotype such as IFN-alpha, IFN-beta, IFN-gamma, IFN-gamma plus lipopolysaccharide (LPS), TNF-alpha, IL-6 or a STING ligand (STING-L) for up to 48 hours and then cytokines were washed off and fresh media was added. CAR expression and M1 marker expression were measured on days 2 and 7 after transfection. Fluorescent labeled HER2+ breast cancer cells (CRL2351) were co-cultured with HER2 CAR macrophages two days after the macrophages were transfected. Cancer cell growth was monitored via its fluorescence on an Incucyte® live imaging microscope every four hours. The Effector (CAR macrophage) to Target (cancer cell) ratio was 5:1.
Five different mRNA modifications were also tested to determine if interferon treatment differentially affected macrophages transfected with mRNA comprising different modifications. Human macrophages were electroporated with HER2 CAR mRNA comprising different mRNA modifications. CAR expression and M1 markers were detected by Flow Cytometry (Attune) on day four after electroporation. Day 4 CAR macrophage cells were then co-cultured with a Nuc-Light labeled, HER2+ breast cancer cell line (CRL2351) at an Effector (CAR macrophage) to Target (cancer cell) ratio of 5:1. Cancer cell growth was monitored via its fluorescence on an Incucyte® live imaging microscope every four hours.
Human macrophages were electroporated with 300 nM CAR mRNA comprising m6AGCap1 and PsU modifications. Cells were cultured with 20 ng/mL IFNs for 24 hours and then the cells were washed to remove cytokines. CAR expression was detected by Flow Cytometry (Attune) on day 2 after transfection. Cells were then co-cultured with a Nuc-Light labeled, HER2+ breast cancer cell line (CRL2351) at the Effector to Target ratio of 3:1. Cancer cell growth was monitored via its fluorescence on an Incucyte® live imaging microscope. CAR expression and M1 markers in macrophages were detected by Flow Cytometry (Attune) on day 7 after transfection.

[2] = tested on: HER2 CAR macrophages co-cultured with HER2+ breast cancer cells (CRL2351); test: Cytokine secretion of interferon treated HER2 CAR macrophages in co-culture (MSD); type: cell-based, human; conditions: E:T 3:1, supernatant at 48 hours
Experimental: Human macrophages were electroporated with 150 nM HER2 CAR mRNA comprising m6AGCap1 and PsU modifications. HER2+ breast cancer cells (CRL2351) were co-cultured with CAR macrophages after the macrophages were transfected with the CAR mRNA at an Effector (CAR macrophage) to Target (cancer cell) ratio of 3:1. Supernatant was collected 48 hours after the cancer cells and macrophages were co-cultured and cytokine levels were measured using a Meso Scale Discovery (MSD) instrument.

[3] = tested on: Human macrophages transfected with mCherry mRNA; test: mCherry mRNA expression in transfected macrophages (Incucyte); type: cell-based; conditions: cultured one day with different doses
Experimental: Human macrophages were transfected with mCherry mRNA comprising m6AGCap1 and PsU or N1 mPsU modifications and were then cultured for one day with different doses of IFN-γ. mCherry expression was monitored on an Incucyte® live imaging microscope.
In order to determine whether an RNaseL inhibitor could rescue IFN-γ-induced instability of transfected mRNA, human macrophages were treated with 1 μM sunitinib (an RNaseL inhibitor) two hours prior to the transfection of mCherry mRNA comprising m6AGCap1 and PsU modifications. Transfected cells were then cultured for one day with different dosages of IFN-γ. mCherry expression was monitored on an Incucyte® live imaging microscope.
The effect of another RNaseL inhibitor (RLI or ABCE1) was also tested to further validate the concept. Human macrophages were co-transfected with mRNA encoding mCherry comprising m6AGCap 1 and PsU modifications and with mRNA encoding ABCE1.

[4] = tested on: CRL-2351 cells expressing nuclear GFP; test: Priming of CAR macrophages with plate-coated agonists, tumor cell killing; type: cell-based; conditions: plate-coated protein, 3 h priming
Experimental: (§1) To generate Her2-Zeta CAR expressing macrophages, primary human macrophages were suspended in EP buffer (MaxCyte) containing 300 nM mRNA (TriLink) at a concentration of 90×10^6 cells/mL. 100 μL of cell mixture was added to an electroporation cassette (OC100×2; MaxCyte) and electroporated using the Experimental T cell 1 setting. Cells were removed from the cassette, plated in 3 mL of TexMACS media (Miltenyi Biotech) containing 20% FBS (Gibco) on UpCell plates (Thermo Scientific), and incubated overnight at 37 C and 5% CO2.
(§2) Recombinant CD40 ligand (Peprotech), 4-1BB ligand (Enzo Life Sciences), and 4-1BB receptor (Peprotech) were resuspended in molecular grade water to a stock concentration of 100 μg/mL. Stock solution was then used to create working solutions in PBS ranging from 2-0.002 μg/mL. 100 uL of working solution was added to wells in a 96-well plate and left at room temperature for 4 h.
Plates were removed from the incubator and left at room temperature for 30 min. Cells were detached from plate, counted using the NC-200 automated cell counter (Chemomtech), and re-suspended in TexMACS media with 10% FBS. […] Cell lysis was detected using Incucyte® analysis (Essen Bioscience). Tumor cell death was calculated by integrated GFP intensity per well relative to time 0.

[5] = tested on: Her2-Zeta CAR expressing macrophages; test: Priming of CAR macrophages with plate-coated agonists, M1 and M2 surface markers; type: cell-based, human; conditions: plate-coated protein, 3 days
Experimental: as §1, §2
For detection of cell surface proteins, macrophages were plated onto wells coated with agonist molecules in a final volume of 200 uL TexMACS media+10% FBS+10 ng/mL GM-CSF and incubated for 3 days at 37 C and 5% CO2. Cells were incubated in 300 μL Accutase (Sigma) for 30 min and transferred to 96-well round bottom plate for staining. Cells were incubated in FACS buffer containing 20 μg/mL Her2-His for 20 min at RT, followed by incubation in Human TruStain FcX for 10 min at RT. […]

| Molecule | M1 phenotype based on CD86 expression [1] | M2 markers based on CD163 expression [1] | secretion of IL-6, IL-8 and TNFα from macrophages [2] | mCherry mRNA expression [3] | tumor killing ability of macrophages and CAR macrophages [4] | M1 phenotype of mRNA CAR macrophages (M1 and M2 markers) [5] |
| --- | --- | --- | --- | --- | --- | --- |
| IFN-α | induction of an M1 phenotype | reduction of M2 markers | increased secretion of the cytokines IL-6, IL-8 and TNFα | – | – | – |
| IFN-γ: interferon cytokine that induces an M1 phenotype | induction of an M1 phenotype | reduction of M2 markers | increased secretion of the cytokines IL-6, IL-8 and TNFα | reduced mCherry mRNA expression | – | – |
| CD40L: Recombinant CD40 ligand (Peprotech), CD40 agonist (protein, UniProt P29965 113-261, looked up) CD40 ligand, soluble form: MQKGDQNPQIAAHVISEASSKTTSVLQWAEKGYYTMSNNLVTLENGKQLTVKRQGLYYIYAQVTFCSNREASSQAPFIASLCLKSPGRFERILLRAANTHSSAKPCGQQSIHLGGVFELQPGASVFVNVTDPSQVSHGTGFTSFGLLKL | – | – | – | – | significantly improved the tumor killing ability | induced an M1 phenotype |
